Assay [1] concerns the target T1, StGSH1 (dimer) (Solanum tuberosum, UniProt M1AWB9).
T1 construct: gene LOC102600891; pET32a, E. coli BL21(DE3); His tag removed by TEV; homodimer separated on Mono Q
T1 sequence (M1AWB9 74-523): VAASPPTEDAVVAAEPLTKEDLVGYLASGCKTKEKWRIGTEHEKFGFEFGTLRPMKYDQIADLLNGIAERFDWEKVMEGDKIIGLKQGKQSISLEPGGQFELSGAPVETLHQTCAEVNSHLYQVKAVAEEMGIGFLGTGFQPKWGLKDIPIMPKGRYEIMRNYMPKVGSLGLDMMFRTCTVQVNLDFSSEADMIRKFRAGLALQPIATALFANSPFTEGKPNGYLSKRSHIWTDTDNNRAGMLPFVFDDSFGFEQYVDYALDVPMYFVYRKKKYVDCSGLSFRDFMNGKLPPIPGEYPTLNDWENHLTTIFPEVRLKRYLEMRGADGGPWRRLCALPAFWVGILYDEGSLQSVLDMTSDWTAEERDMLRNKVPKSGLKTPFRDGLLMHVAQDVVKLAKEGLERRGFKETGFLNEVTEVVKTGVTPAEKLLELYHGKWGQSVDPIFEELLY
The assay can be described thus: coupled pyruvate kinase/lactate dehydrogenase assay of ADP formation, A340. The assay is classed as biochemical. The following applies: standard reaction: pH 8.0, 100 mM Tris, 150 mM KCl, 20 mM MgCl2, 10 mM L-cysteine, 20 mM L-glutamate; homo-dimer; read-out: ATP. The text has this:
coupled pyruvate kinase/lactate dehydrogenase assay of ADP formation, A340 on StGSH1 (dimer)

Assay [2] deals with T2, StGSH1 (monomer) (Solanum tuberosum, UniProt M1AWB9).
T2 construct: gene LOC102600891; pET32a, E. coli BL21(DE3); His tag removed by TEV; monomer separated on Mono Q
T2 sequence (M1AWB9 74-523): T1 sequence (M1AWB9 74-523)
The assay is described as above. The assay is classed as biochemical. The following applies: standard reaction: pH 8.0, 100 mM Tris, 150 mM KCl, 20 mM MgCl2, 10 mM L-cysteine, 20 mM L-glutamate, read-out: ATP. The text has this:
coupled pyruvate kinase/lactate dehydrogenase assay of ADP formation, A340 on StGSH1 (monomer)

Take `Nc1ncnc2c1ncn2[C@@H]1O[C@H](COP(=O)(O)OP(=O)(O)OP(=O)(O)O)[C@@H](O)[C@H]1O` [ATP]: the Km was determined as 1000 ± 300 µM in assay [1] and 2410 ± 360 µM in assay [2].

These data come from PMC12884754, “A GLUTAMATE CYSTEINE LIGASE Gene StGSH1 Regulated by StERF10 Enhanced Glutathione Accumulation and Adaptation to Low Phosphorus Stress in Potato” (Advanced Science, 2025).
